This note sets out measurements from patent US8227428B2, “Anti-infammatory macrolide” (Glaxo Group Limited, priority 2009, dated 2012).

The nature of series [1]: In vitro stability in human plasma. Format: in vitro ADME. The settings on record: 37° C., 2000 ng/mL, over 24 hours. Here is the method: (§1) An in vitro stability study in human whole blood and plasma is carried out over 24 hours at 37° C. Drug-free freshly collected human blood (CPD—citrate-phosphate-dextrose is used for all blood collections as anticoagulant) and plasma are spiked with a previously prepared standard solution of test compound to a final concentration of 2000 ng/mL. For each compound blood and plasma are spiked in duplicate and incubated for 24 hours. Two separate aliquots of blood or plasma (50 μL) are sampled from each incubation mixture at 0, 15, 30, 60, 120, 240 and 1440 minutes. All aliquots are mixed with an equal volume of water (50 μL) and extracted with 300 μL of acetonitrile/methanol (2:1) containing internal standard (roxithromycin). The samples are then vortexed, centrifuged and analysed by LC/MS/MS (MRM mode). Results are expressed as the percentage of compound remaining, expressed as the ratio of analyte/internal standard.

A short description of series [2]: Stability in buffer solutions pH 2 to pH 8 at 25° C. Format: physicochemical. The conditions noted are these: 25° C., during 24 hours. As for the experimental part:
(§2) Stability in buffer solutions pH 2 to pH 8 at 25° C., and in bio-relevant media (SGF pH 1.6, Fasted SIF pH 6.5 and Fed SIF pH 5.0) at 37° C., during 24 hours is monitored. The samples are analysed by LC/MS.
Buffer Solutions and Physiologically Relevant Media Used in Stability Assay:
LC Conditions: Instrument HP1100
Column: Waters XBridge C18, 2.1×50 mm, 3.5 μm
Guard column: Waters XBridge C18, 2.1×10 mm, 3.5 μm
• A) 0.1% HCOOH/H2O • B) 0.1% HCOOH/CH3CN Gradient Timetable: […]
(§3) Flow: 0.3 mL/min Column temp.: 25° C. Sample temp.: 25° C. (for stability assay in buffer solutions) • 37° C. (for stability assay in bio-relevant media) Injector volume: 3 μL (without injection program) MS Conditions: Instrument HP MS API-ES, positive ion mode Mass Range: 150-1500 Fragmentor: 100 Gain: 1.0 Treshold: 150 Step size: 0.20 Gas Temperature: 350° C. Drying Gas Flow: 13 L/min Nebulizer Pressure: 35 psig Capillary Voltage Positive 4000 V • Negative 4000 V Sample Preparation: a) For Stability Assay in Buffer Solutions
Compounds are dissolved in CH3CN to produce a 1 mg/mL stock solution. The stock solution is diluted to a concentration of 0.2 mg/mL (1 mL solution in 4 mL buffer) with appropriate buffer to produce a working solution.
Each solution at each pH is then dispatched into vials that are sealed and stored at room temperature in order to be analyzed at the proper time point. Before analysis, pH values of prepared sample solutions are checked and adjusted if neccessary.

The subject of series [3] is Streptococcus pyogenes ATCC700294. The series is described as follows: Anti-bacterial screening, broth microdilution MIC. The class given is cell-based. The settings on record: read-out: minimal inhibitory concentration (MIC). Here is the method: (§4) Whole-cell antimicrobial activity of compounds against clinically relevant bacteria (Staphylococcus aureus ATCC13709, Streptococcus pneumoniae ATCC49619, Streptococcus pyogenes ATCC700294, Moraxella catarrhalis ATCC23246, Haemophilus influenzae ATCC49247 and Escherichia coli ATCC25922) is determined by broth microdilution using the Clinical and Laboratory Standards (CLSI) recommended procedure (Document M7-[…], Methods for Dilution Susceptibility Tests for Bacteria that Grow Aerobically). Compounds are dissolved in DMSO to produce a 50 mM stock solution. The stock solution is diluted to a concentration of 128 μg/mL in appropriate media (Haemophilus Test Medium for Haemophilus influenzae, Mueller-Hinton Broth for Staphylococcus aureus, Moraxella catarrhalis and Escherichia coli, and Mueller-Hinton Broth supplemented with 5% horse serum for Streptococcus pyogenes and Streptococcus pneumoniae) to produce a working solution. A Tecan Genesis 150 Workstation (Tecan Group Ltd. Mannedorf, Switzerland) is used to prepare serial two-fold dilutions (50 μL aliquots) of the working solution in a U-shape bottom 96 well microtitre plate. After the compounds are diluted, a 50 μL aliquot of the test isolate ( 1×10^6 cfu/ml) is added to each well of the microtitre plate. The final test concentrations range from 0.125-64 μg/mL. Inoculated plates are incubated at 35° C. in ambient air for 18 to 24 hours. The minimum inhibitory concentration (MIC) is determined as the lowest concentration of compound that inhibited visible growth.
On the technique in general: Dilution methods test growth across graded concentrations, often in twofold steps.

The subject of series [4] is Haemophilus influenzae ATCC49247. The series is described as follows: Anti-bacterial screening, broth microdilution MIC. The class given is cell-based. The conditions noted are these: read-out: minimal inhibitory concentration (MIC). Here is the method:
as §4

For series [5], the system named is Streptococcus pneumoniae ATCC49619. Description: Anti-bacterial screening, broth microdilution MIC. The conditions noted are these: read-out: minimal inhibitory concentration (MIC). The class given is cell-based. Here is the method:
as §4

The test system of series [6] is Moraxella catarrhalis ATCC23246. The series is described as follows: Anti-bacterial screening, broth microdilution MIC. Format: cell-based. The conditions noted are these: read-out: minimal inhibitory concentration (MIC). As for the experimental part: as §4
Series [7] relates to Staphylococcus aureus ATCC13709. The series is described as follows: Anti-bacterial screening, broth microdilution MIC. The conditions noted are these: read-out: minimal inhibitory concentration (MIC). The class given is cell-based. Here is the method:
as §4

The test system of series [8] is Escherichia coli ATCC25922. Description: Anti-bacterial screening, broth microdilution MIC. The class given is cell-based. The conditions noted are these: read-out: minimal inhibitory concentration (MIC). Here is the method:
as §4

The nature of series [9]: In vitro stability in human whole blood. The class given is in vitro ADME. The conditions noted are these: 37° C., 2000 ng/mL, over 24 hours. As for the experimental part: as §1
Series [10] relates to Lung neutrophilia induced by bacterial lipopolysaccharide (LPS). Description: Lung neutrophilia induced by bacterial lipopolysaccharide (LPS) in male BALB/cJ mice. Format: in vivo. The conditions noted are these: average; single dose 200 mg/kg i.p.; vs LPS challenged untreated animals. Here is the method: For intraperitoneal administration (i.p.) compounds are dissolved in a final concentration of 10 mg/mL. The required amount of compound is first dissolved in dimethylsulfoxide (DMSO, Sigma) and then diluted with 0.5% (w/v) methyl-cellulose so that the final DMSO concentration is 5% (v/v). The obtained solution is applied in a dose volume of 0.2 mL per 10 g of animal. Therefore, the compound dose is 200 mg/kg.
Male BALB/cJ mice (Charles River, France), with an average weight of ˜30 g are randomly grouped (n=8 in testing group, 10 in positive control and 8 in negative control). Mice receive intraperitoneally (i.p.) a single dose of 200 mg/kg of test compound. Two hours after administration, 2 μg of LPS (from Escherichia coli serotype 0111:B4, Sigma), dissolved in sterile PBS in a volume of 60 μL, is intranasally administered to all experimental groups except the negative control group, which receive the same volume of vehicle (PBS). Animals are sacrificed approximately 24 hours after application of LPS in order to obtain bronchioalveolar lavage fluid (BALF), which is used to determine absolute number of cells and the percentage of neutrophils. Results are expressed as percentage decrease in total cell number and number of neutrophils in BALF of treated animals compared to positive control (LPS challenged, but untreated animals).

Series [11] in a line: Stability in bio-relevant media (SGF, Fasted SIF, Fed SIF) at 37° C. The class given is physicochemical. The conditions noted are these: SGF pH 1.6, Fasted SIF pH 6.5, Fed SIF pH 5.0, 37° C., during 24 hours. As for the experimental part:
as §2
SGF (Simulated Gastric Fluid) pH 1.6
Fasted SIF (Simulated Intestinal Fluid) pH 6.5
Fed SIF (Simulated Intestinal Fluid) pH 5.0
as §3
b) For Stability Assay in Bio-Relevat Media
b1) For SGF Media pH 1.6 Testing:
Compounds are dissolved in SGF media pH 1.6 to give 0.2 mg/mL solution in case of compounds 1 and 2, and to give 0.1 mg/mL solution in case of compound 3. Solutions are then stored in a water bath at 37° C. and removed at the proper time point for LC/MS analysis. Before analysis, pH values of prepared sample solutions are checked and adjusted if necessary.
b2) For Fasted SIF Media pH 6.5 Testing:
Compounds are dissolved in Fasted SIF media pH 6.5 to give 2 mg/mL solution. Solutions are then dispatched into vials that are stored in a water bath at 37° C. and removed at the proper time point and diluted 10 times with CH3CN for LC/MS analysis. Before analysis, pH values of prepared sample solutions are checked and adjusted if necessary.
b3) For Fed SIF Media pH 5.0 Testing:
Compounds are dissolved in Fed SIF media pH 5.0 to give 2 mg/mL solution. Solutions are then dispatched into vials that are stored in a water bath at 37° C. and removed at the proper time point and diluted 40 times with CH3CN for LC/MS analysis. Before analysis, pH values of prepared sample solutions are checked and adjusted if necessary.

For `CC[C@H]1OC(=O)[C@H](C)[C@@H](O[C@H]2C[C@@](C)(OC)[C@@H](OC(=O)CN(CC)CC)[C@H](C)O2)[C@H](C)[C@@H](O[C@@H]2O[C@H](C)C[C@H](NC)[C@H]2O)[C@](C)(OC)C[C@@H](C)C(=O)N[C@H](C)[C@@H](O)[C@]1(C)O` [Example 1, 3′-N-Demethyl-4″-O-(2-diethylaminoethanoyl)-6-O-methyl-9a-aza-9a-homoerythromycin A], the stability in plasma result in series [1] was “stable”. Also, the “stability in buffers pH 2 to 8” value in series [2] was “showed stability”. The MIC in [3], in series [4], in series [5], in [6], in [7] and in [8] was more than 64 µg/mL in each case. In addition, in series [9], the “stability in whole blood” value is listed as “stable”. In series [10], the “inhibition of the number of neutrophils in BALF” value is listed as “more than 89%”. The “stability in all three bio relevant media” value in [11] is “Examples 1 and 3 showed stability in all three bio relevant media”.
